Tests used:
Russian thistle = test: Test C pre-/postemergence herbicide test; type: in vivo, Salsola kali; conditions: Preemergence
Description: Seeds of plant species selected from blackgrass (Alopecurus myosuroides), ryegrass, Italian (Italian ryegrass, Lolium multiflorum), wheat (winter wheat, Triticum aestivum), galium (catchweed bedstraw, Galium aparine), corn (Zea mays), crabgrass, large (large crabgrass, Digitaria sanguinalis), foxtail, giant (giant foxtail, Setaria faberii), johnsongrass (Sorghum halepense), lambsquarters (Chenopodium album), morningglory (Ipomoea coccinea), nutsedge, yellow (yellow nutsedge, Cyperus esculentus), pigweed (Amaranthus retroflexus), ragweed (common ragweed, Ambrosia elatior), soybean (Glycine max), barnyardgrass (Echinochloa crus-galli), oilseed rape (Brassica napus), waterhemp (common waterhemp, Amaranthus rudis), kochia (Kochia scoparia), oat, wild (wild oat, Avena fatua), surinam grass (Brachiaria decumbens), foxtail, green (green foxtail, Setaria viridis), goosegrass (Eleusine indica), bromegrass, downy (downy bromegrass, Bromus tectorum), nightshade (eastern black nightshade, Solanum ptycanthum), cocklebur (common cocklebur, Xanthium strumarium), cupgrass, woolly (woolly cupgrass, Eriochloa villosa), bermudagrass (Cynodon dactylon), sunflower, (common oilseed sunflower, Helianthus annuus), Russian thistle (Salsola kali) and velvetleaf (Abutilon theophrasti) were planted into a blend of loam soil and sand and treated preemergence with test chemicals formulated in a non-phytotoxic solvent mixture which included a surfactant. At the same time, plants selected from these crop and weed species and also barley (winter barley, Hordeum vulgare), […]), chickweed (common chickweed, Stellaria media), deadnettle (henbit deadnettle, Lamium amplexicaule), and canarygrass (littleseed canarygrass, Phalaris minor) were planted in pots containing Redi-Earth® planting medium (Scotts Company, 14111 Scottslawn Road, Marysville, Ohio 43041) comprising spaghnum peat moss, vermiculite, wetting agent and starter nutrients and treated with postemergence applications of test chemicals formulated in the same manner. Plants ranged in height from 2 to 18 cm (1- to 4-leaf stage) for postemergence treatments. Treated plants and controls were maintained in a greenhouse for 13 to 15 days, after which time all species were compared to controls and visually evaluated. Plant response ratings, summarized in Table C, are based on a scale of 0 to 100 where 0 is no effect and 100 is complete control. A dash (-) response means no test result.

smartweed = test: Test E preemergence herbicide test; type: in vivo, Polygonum Persicaria
Description: Seeds of plant species selected from corn (Zea mays), soybean (Glycine max), velvetleaf (Abutilon theophrasti), lambsquarters (Chenopodium album), wild poinsettia (Euphorbia heterophylla), pigweed, palmer (palmer pigweed, Amaranthus palmeri), waterhemp (common waterhemp, Amaranthus rudis), surinam grass (Brachiaria decumbens), crabgrass, large (large crabgrass, Digitaria sanguinalis), crabgrass, Brazil (Brazilian crabgrass, Digitaria horizontalis), panicum, fall (fall panicum, Panicum dichotomiflorum), foxtail, giant (giant foxtail, Setaria faberii), foxtail, green (green foxtail, Setaria viridis), goosegrass (Eleusine indica), johnsongrass (Sorghum halepense), ragweed (common ragweed, Ambrosia elatior), barnyardgrass (Echinochloa crus-galli), sandbur (southern sandbur, Cenchrus echinatus), arrowleaf […] rhombifolia), ryegrass, Italian (Italian ryegrass, Lolium multiflorum), dayflower, VA (Virginia dayflower, Commelina virginica), field bindweed (Convolvulus arvensis), morningglory (Ipomoea coccinea), nightshade (eastern black nightshade, Solanum ptycanthum), kochia (Kochia scoparia), nutsedge, yellow (yellow nutsedge, Cyperus esculentus), cocklebur (common cocklebur, Xanthium strumarium), smartweed (ladysthumb smartweed, Polygonum Persicaria) and beggarticks (hairy beggarticks, Bidens pilosa), were planted into a silt loam soil and treated preemergence with test chemicals formulated in a non-phytotoxic solvent mixture which included a surfactant. Treated plants and controls were maintained in a greenhouse for 21 days, after which time all species were compared to controls and visually evaluated. Plant response ratings, summarized in Table E, are based on a scale of 0 to 100 where 0 is no effect and 100 is complete control. A dash (-) response means no test result.

bulrush, hardstem = test: Test F flood (paddy) test; type: in vivo, Scirpus juncoides; conditions: 21 d, scale 0-100
Description: Three plastic pots (ca. 16-cm diameter) per rate were partially filled with sterilized Tama silt loam soil comprising a 35:50:15 ratio of sand, silt and clay and 2.6% organic matter. Separate plantings for each of the three pots were as follows. Seeds from the U.S. of monochoria (Monochoria vaginalis), sedge, umbrella (small-flower umbrella sedge, Cyperus difformis), bulrush, […] bulrush, Scirpus juncoides), and […] (purple […] coccinea), were planted into one 16-cm pot for each rate. Seeds from the U.S. of flatsedge, rice (rice flatsedge, Cyperus iria), sprangletop, Brdd. (bearded sprangletop, Leptochloa fascicularis), one stand of 9 or 10 water seeded rice seedlings (Rice, W.S. Jap, Oryza sativa cv. 'Japonica-[…]' or Rice, W.S. Ind, 'Indica'), and two stands of 3 or 4 seedlings of rice, transplanted (transplanted rice, Oryza sativa cv. 'Japonica-[…]') were planted into one 16-cm pot for each rate. Seeds from the U.S. of barnyardgrass (Echinochloa crus-galli), […] (common […], Alisma plantago-aquatica), and watergrass, late (late watergrass, Echinochloa oryzicola) were planted into one 16-cm pot for each rate. Plantings were sequential so that crop and weed species were at the 2.0 to 2.5-leaf stage at time of treatment. Potted plants were grown in a greenhouse with day/night temperature settings of 30/27° C., and supplemental balanced lighting was provided to maintain a 16-h photoperiod. Test pots were maintained in the greenhouse until test completion. At time of treatment, test pots were flooded to 3 cm above the soil surface, treated by application of test compounds directly to the paddy water, and then maintained at that water depth for the duration of the test. Effects of treatments on rice and weeds were visually evaluated by comparison to untreated controls after 21 d. Plant response ratings, summarized in Table F, are based on a scale of 0 to 100 where 0 is no effect and 100 is complete control. A dash (-) response means no test result.

[1] = 125 g ai/ha, scale 0 to 100 (0 no effect, 100 complete control)

O=C1NCC(c2ccc(F)c(Cl)c2)C1C(=O)Nc1ccccc1F (stereo not shown) [Compound 60]
Plant response rating, Russian Thistle (Russian thistle; 62 g ai/ha, scale 0 to 100): 50 | Plant response rating, Russian Thistle (Russian thistle; [1]): 60

O=C1NCC(c2ccc(C(F)(F)F)cc2)C1C(=O)Nc1cccc(F)c1F (stereo not shown) [Compound 80, N-(2,3-difluorophenyl)-2-oxo-4-[4-(trifluoromethyl)phenyl]-3-pyrrolidinecarboxamide]
Plant response rating, Smartweed (smartweed; 16 g ai/ha): 0 | Plant response rating, Smartweed (smartweed; 31 g ai/ha): 0 | Plant response rating, Smartweed (smartweed; 62 g ai/ha): 20 | Plant response rating, Smartweed (smartweed; 250 g ai/ha): 40

O=C1NCCC1C(=O)N(c1ccc(F)c(F)c1)c1ccccc1F (stereo not shown) [Compound 5, N-(3,4-difluorophenyl)-N-(2-fluorophenyl)-2-oxo-3-pyrrolidinecarboxamide]
Plant response rating, Russian Thistle (Russian thistle; 62 g ai/ha, scale 0 to 100): 0

O=C1NCC(c2ccc(F)c(F)c2)C1C(=O)Nc1cccc(F)c1F (stereo not shown) [Compound 17, N-(2,3-difluorophenyl)-4-(3,4-difluorophenyl)-2-oxo-3-pyrrolidinecarboxamide]
Plant response rating, Bulrush, Hardstem (bulrush, hardstem; 125 g ai/ha): 0 | Plant response rating, Bulrush, Hardstem (bulrush, hardstem; 250 g ai/ha): 0 | Plant response rating, Bulrush, Hardstem (bulrush, hardstem; 500 g ai/ha): 0 | Plant response rating, Bulrush, Hardstem (bulrush, hardstem; 1000 g ai/ha): 0 | Plant response rating, Bulrush, Hardstem (bulrush, hardstem; 2000 g ai/ha): 40

CN1CC(c2ccc(F)c(F)c2)C(C(=O)Nc2cccc(F)c2F)C1=O (stereo not shown) [Compound 303]
Plant response rating, Bulrush, Hardstem (bulrush, hardstem; 62 g ai/ha): 0 | Plant response rating, Bulrush, Hardstem (bulrush, hardstem; 125 g ai/ha): 0 | Plant response rating, Bulrush, Hardstem (bulrush, hardstem; 250 g ai/ha): 70 | Plant response rating, Bulrush, Hardstem (bulrush, hardstem; 500 g ai/ha): 80

O=C1NCC(c2ccc(Cl)c(Cl)c2)C1C(=O)Nc1ccccc1F (racemic) [Compound 14]
Plant response rating, Russian Thistle (Russian thistle; 62 g ai/ha, scale 0 to 100): 0 | Plant response rating, Russian Thistle (Russian thistle; [1]): 0 | Plant response rating, Smartweed (smartweed; 125 g ai/ha): 0
